Reference: ChEMBL document CHEMBL1177844 (Eur J Med Chem, 2010)

Assay: Inhibition of ROCK

SMILES	pIC50
CC(C)CCN1CCCC(Nc2ccc3[nH]ncc3c2)C1 (stereo not drawn)	6.47
O=C(NC1CCN(Cc2ccccc2)CC1)c1ccc2[nH]ncc2c1	6.27
CC(C)CCCN1CCCC(Nc2cccc3cnccc23)C1 (stereo not drawn)	7
Clc1ccccc1CN1CCCC(Nc2cccc3cnccc23)C1 (stereo not drawn)	6.68
Nc1ccccc1CN1CCC(Nc2cccc3cnccc23)C1 (stereo not drawn)	6.69
c1cc2[nH]ncc2cc1NC1CCNC1 (stereo not drawn)	7
O=C(CC1CCCCC1)Nc1ccc2[nH]ncc2c1	6.05
O=C(NCc1ccccc1)Nc1ccc2[nH]ncc2c1	6.59
O=C(NCc1ccc(Cl)cc1Cl)Nc1ccc2[nH]ncc2c1	6.66
Nc1cccc(CN2CCC(Nc3cccc4cnccc34)C2)c1 (stereo not drawn)	6.56
Cc1n[nH]c2ccc(NC3CCCN(Cc4ccccc4)C3)cc12 (stereo not drawn)	6.82
c1cc2[nH]ncc2cc1NC1CCNCC1	6.52
c1cc(N[C@H]2CC[C@H](NC3CC3)CC2)c2ccncc2c1	7.15
c1ccc(CN2CCCC(Nc3ccc4[nH]ncc4c3)C2)nc1 (stereo not drawn)	6.62
Fc1cccc(F)c1CN1CCC(Nc2cccc3cnccc23)C1 (stereo not drawn)	7.12
CC(C)CN1CCC(Nc2cccc3cnccc23)CC1	6.68
c1ccc(CN[C@H]2CC[C@@H](Nc3ccc4[nH]ncc4c3)CC2)cc1	6.49
Fc1ccc(CN2CCC(Nc3cccc4cnccc34)C2)cc1 (stereo not drawn)	7.02
Clc1cccc(CN2CCC(Nc3cccc4cnccc34)C2)c1 (stereo not drawn)	7.19
CCCN1CCC(Nc2cccc3cnccc23)CC1	6.46
CNC1CCC(Nc2cccc3cnccc23)CC1 (stereo not drawn)	6.7
c1ccc(CCN[C@H]2CC[C@H](Nc3cccc4cnccc34)CC2)cc1	6.39
c1ccc(CN2CCC(Nc3cccc4cnccc34)CC2)cc1	6.85

SMILES	pIC50
c1ccc(CN2CCC(Oc3ccc4[nH]ncc4c3)CC2)cc1	7
c1ccc(CN2CCCC(Oc3ccc4[nH]ncc4c3)C2)cc1 (stereo not drawn)	8
Fc1ccc(CN2CCCC(Nc3ccc4[nH]ncc4c3)C2)cc1 (stereo not drawn)	7.6
Clc1cccc(CN2CCC(Nc3ccc4[nH]ncc4c3)CC2)c1	6.54
O=C(NCc1c(Cl)cccc1Cl)Nc1ccc2[nH]ncc2c1	7.7
O=C(Nc1ccc2[nH]ncc2c1)C1CCCCC1	6.3
CCCN[C@H]1CC[C@@H](Nc2cccc3cnccc23)CC1	6.74
Nc1cccc(CN2CCCC(Nc3ccc4[nH]ncc4c3)C2)c1 (stereo not drawn)	7.46
O=C(NCc1c(F)cccc1F)Nc1ccc2[nH]ncc2c1	7.07
Clc1ccccc1CN1CCCC(Nc2ccc3[nH]ncc3c2)C1 (stereo not drawn)	7.89
c1cc(N[C@H]2CC[C@@H](NC3CC3)CC2)c2ccncc2c1	6.74
Nc1ccc(CN2CCCC(Nc3ccc4[nH]ncc4c3)C2)cc1 (stereo not drawn)	8
O=C(Nc1ccc2[nH]ncc2c1)C1CCCN(Cc2ccccc2)C1 (stereo not drawn)	7.74
c1ccc(CN2CCCC(Nc3ccc4[nH]ncc4c3)C2)cc1 (stereo not drawn)	7.7
O=C(Nc1ccc2[nH]ncc2c1)C1CCN(Cc2ccccc2)CC1	6.87
Clc1ccccc1CN1CCC(Nc2ccc3[nH]ncc3c2)CC1	6.36
c1ccc(CN[C@H]2CC[C@H](Nc3ccc4[nH]ncc4c3)CC2)cc1	6.28
Cc1ccc(CN2CCCC(Nc3ccc4[nH]ncc4c3)C2)cc1 (stereo not drawn)	8.05
Clc1ccc(CN2CCC(Nc3cccc4cnccc34)C2)cc1 (stereo not drawn)	7.19
c1ccc(CCN[C@H]2CC[C@@H](Nc3cccc4cnccc34)CC2)cc1	6.24
c1ccc(CN2CCCC(Nc3cccc4cnccc34)C2)cc1 (stereo not drawn)	6.7
O=C(COc1c(Cl)cccc1Cl)Nc1ccc2[nH]ncc2c1	6
c1c[nH]c(CN2CCCC(Nc3ccc4[nH]ncc4c3)C2)c1 (stereo not drawn)	7.96

SMILES	pIC50
Clc1ccccc1CN1CCC(Nc2cccc3cnccc23)C1 (stereo not drawn)	7
COc1cc(CN2CCCC(Nc3ccc4[nH]ncc4c3)C2)cc(OC)c1 (stereo not drawn)	7.1
Clc1ccc(CN2CCC(Nc3ccc4[nH]ncc4c3)CC2)cc1	6.54
Fc1cc2[nH]ncc2cc1NC1CCCN(Cc2ccccc2)C1 (stereo not drawn)	6.4
CN(CCNc1ccc2[nH]ncc2c1)Cc1ccccc1	5.1
c1cncc(CN2CCCC(Nc3ccc4[nH]ncc4c3)C2)c1 (stereo not drawn)	7.14
CCN1CCC(Nc2ccc3[nH]ncc3c2)CC1	6.15
COc1ccc(CN2CCCC(Nc3ccc4[nH]ncc4c3)C2)cc1 (stereo not drawn)	7.8
O=C(COc1c(Cl)cc(F)cc1Cl)Nc1ccc2[nH]ncc2c1	6.3
Clc1cccc(CN2CCCC(Nc3ccc4[nH]ncc4c3)C2)c1 (stereo not drawn)	7.72
CC(C)CCN1CCCC(Nc2cccc3cnccc23)C1 (stereo not drawn)	6.57
Clc1ccc(CN2CCCC(Nc3ccc4[nH]ncc4c3)C2)cc1 (stereo not drawn)	7.96
c1coc(CN2CCCC(Nc3ccc4[nH]ncc4c3)C2)c1 (stereo not drawn)	6.74
Clc1cccc(CN2CCCC(Nc3cccc4cnccc34)C2)c1 (stereo not drawn)	6.58
CCCN[C@H]1CC[C@H](Nc2cccc3cnccc23)CC1	6.74
c1ccc(CN2CCC(Nc3ccc4[nH]ncc4c3)C2)cc1 (stereo not drawn)	7.49
Nc1ccccc1CN1CCCC(Nc2ccc3[nH]ncc3c2)C1 (stereo not drawn)	7.07
Clc1ccccc1CN1CCC(Nc2ccc3[nH]ncc3c2)C1 (stereo not drawn)	7.35
Fc1ccc(CN2CCCC(Nc3ccc4[nH]ncc4c3)C2)cc1F (stereo not drawn)	8
CCCN1CCCC(Nc2ccc3[nH]ncc3c2)C1 (stereo not drawn)	6.11
O=[N+]([O-])c1ccc(CN2CCCC(Nc3ccc4[nH]ncc4c3)C2)cc1 (stereo not drawn)	7.06
Nc1ccc(CN2CCC(Nc3cccc4cnccc34)C2)cc1 (stereo not drawn)	6.63
